Source: article PMC12472551, “Comprehensive Identification and Mechanistic Evaluation of Novel DHODH Inhibitors as Potent Broad-Spectrum Antiviral Agents” (Pharmaceuticals, 2025)
Where two headings read alike, the source gives them in different places.

Tests used:
[1] = MTT cytotoxicity assay in MDCK cells; format: cell-based, Canine; details: dog
Experimental: (§1) The cytotoxic effects of the test compounds on MDCK and Vero cell lines were evaluated utilizing the 3-(4,5-dimethylthiazol-2-yl)-2,5-diphenyltetrazolium bromide (MTT) assay. In brief, cells were seeded in 96-well plates and maintained in complete growth medium. After an overnight incubation period, this medium was aspirated and replaced with serum-free DMEM containing the compounds at predetermined concentrations. After 48 h of treatment, MTT dissolved in PBS was introduced into each well to achieve a final concentration of 0.5 mg/mL. Subsequent incubation at 37 °C for 2 h facilitated formazan crystal formation. The medium was then aspirated, and DMSO was added to solubilize the formazan crystals. Absorbance measurements at 540 nm were conducted using a CLARIOstar microplate reader.

[2] = test system: influenza A virus (A/PR/8/34(H1N1)); experiment: microbe, parasite or virus in culture; format: cell-based
[3] = MTT cytotoxicity assay in Vero cells; format: cell-based; details: African green monkey, Vero-ACE2-TMPRSS2 cells
Experimental: A Vero-ACE2-TMPRSS2 (labelled ‘Vero’ hereafter) cell line was used for SARS-CoV-2.
as §1

SARS-CoV-2 = experiment: microbe, parasite or virus in culture; format: cell-based; details: Severe acute respiratory syndrome coronavirus 2
DHODH = details: cited from earlier work
DENV and ZIKV viruses = test system: DENV and ZIKV viruses; parameters: method as in PMID 33716051; details: cited from earlier work
[4] = read-out: CC50 (hematological toxicity); cited from earlier work
human DHODH = human DHODH (Homo sapiens, UniProt Q02127); experiment: Surface plasmon resonance binding
Experimental: SPR binding affinities were determined using a Reichert 2SPR instrument (Reichert Technologies, Amherst, NY, USA). Carboxymethyl dextran hydrogel sensor chips were amine-coupled via standard EDC/NHS chemistry. […] Remaining activated groups were quenched with 1 M ethanolamine-HCl (pH 8.5). Equilibrium dissociation constants (KD) were derived from concentration–response curves generated by injecting compound dilutions in HBS-EP+ buffer at 30 μL/min. Original data were processed using TraceDrawer (version 1.8) software with steady-state affinity models fitted by nonlinear regression analysis.

human lung organoids = details: viral replication in human lung organoids; cited from earlier work
[5] = Influenza A virus, MDCK, A/PR/8/34(H1N1), MDCK cells, plaque reduction, read-out: IC50
[6] = SARS-CoV-2, Vero-ACE2-TMPRSS2 cells, plaque assay, read-out: IC50

human DHODH, sequence (Q02127 whole entry): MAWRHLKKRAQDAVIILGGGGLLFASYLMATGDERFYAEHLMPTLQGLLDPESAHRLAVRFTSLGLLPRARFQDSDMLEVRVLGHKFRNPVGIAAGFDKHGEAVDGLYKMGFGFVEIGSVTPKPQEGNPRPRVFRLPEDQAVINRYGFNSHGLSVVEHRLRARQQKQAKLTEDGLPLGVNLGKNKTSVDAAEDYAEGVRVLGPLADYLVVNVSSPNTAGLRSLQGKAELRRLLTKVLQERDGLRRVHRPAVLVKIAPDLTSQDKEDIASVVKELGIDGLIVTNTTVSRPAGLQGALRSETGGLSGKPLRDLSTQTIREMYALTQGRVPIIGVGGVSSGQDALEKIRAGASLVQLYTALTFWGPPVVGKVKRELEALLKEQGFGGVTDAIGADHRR

COC(=O)c1ccc(NC(=O)CSc2nc(-c3sc(-c4ccccc4)nc3C)cc(=O)[nH]2)cc1 [Compound 3]
CC50 at 48 h [1]: > 200 µM | IC50 ([2]; Influenza A virus, MDCK): > 200 µM

COC(=O)OCOc1c2n(ccc1=O)N([C@@H]1c3ccccc3SCc3c1ccc(F)c3F)[C@@H]1COCCN1C2=O [Baloxavir marboxil, reference compound]
IC50 [2, 5]: 0.00967 ± 0.00112 µM

Cc1nc2ccc(-c3ccc(-c4ccccc4)cc3)cn2c1C(=O)O [Compound 12, 6-([1,1′-Biphenyl]-4-yl)-2-methylimidazo[1,2-a]pyridine-3-carboxylic acid]
CC50 at 48 h [1]: > 200 µM | IC50 ([2]; A/PR/8/34(H1N1), MDCK cells, plaque reduction, read-out: IC50): 100 ± 1.13 µM | IC50 [2, 5]: > 100 µM | CC50 at 48 h [3]: > 200 µM | IC50 (SARS-CoV-2; [6]): > 200 µM

Cc1nc2ncc(-c3ccc(-c4ccccc4)cc3)cn2c1C(=O)O [Compound 13, 6-([1,1′-Biphenyl]-4-yl)-2-methylimidazo [1,2-a]pyrimidine-3-carboxylic acid]
CC50 at 48 h [1]: > 200 µM | IC50 [2, 5]: 1.08 ± 0.26 µM | CC50 at 48 h [3]: > 200 µM | IC50 (SARS-CoV-2; [6]): 105 ± 5.19 µM

O=C(Cc1cccs1)Nc1ccc(N2CCN(c3ccccc3Cl)CC2)cc1C(=O)O [Compound 7]
CC50 at 48 h [1]: > 200 µM | IC50 ([2]; Influenza A virus, MDCK): 17.2 ± 1.19 µM

O=C(CCCCCn1c(=O)c2sccc2n(CC(=O)NCCC2=CCCCC2)c1=O)NCc1ccc(F)cc1 [Compound 2]
CC50 at 48 h [1]: > 200 µM | IC50 ([2]; Influenza A virus, MDCK): > 200 µM

C/C(O)=C(\C#N)C(=O)Nc1ccc(C(F)(F)F)cc1 [Compound 17, teriflunomide, reference compound]
CC50 at 48 h [1]: 181 ± 16.4 µM | IC50 [2, 5]: 35 ± 3.33 µM | CC50 at 48 h [3]: > 200 µM | IC50 (SARS-CoV-2; [6]): 26.1 ± 4.32 µM | IC50 (DHODH; competing with ubiquinone, read-out: IC50 (DHODH inhibition)): […]

CCC(CC)COC(=O)[C@H](C)N[P@](=O)(OC[C@H]1O[C@@](C#N)(c2ccc3c(N)ncnn23)[C@H](O)[C@@H]1O)Oc1ccccc1 [Remdesivir, reference compound]
IC50 (SARS-CoV-2): 4.95 ± 0.78 µM

COc1cccc(-c2ccc(NC(=O)C3=C(C(=O)O)CCC3)c(F)c2)c1 [vidofludimus]
IC50 (DHODH; enhanced selectivity, read-out: IC50): 0.041 to 0.16 µM

Cc1c(-c2ccc(-c3ccccc3F)cc2)nc2ccc(F)cc2c1C(=O)O [Compound 18, brequinar]
EC50 (DENV and ZIKV viruses): 0.017 to 0.061 µM | CC50 [4]: > 5 µM | Ka, association constant (human DHODH; SPR): 1.31 × 10^6 M^−1S^−1

CCCCc1nn2c(=O)cc(CSc3nc4ccc(NC(C)=O)cc4s3)nc2s1 [Compound 4]
CC50 at 48 h [1]: > 200 µM | IC50 ([2]; Influenza A virus, MDCK): 66.2 ± 6.29 µM

O=C(COc1ccccc1)Nc1ccc(N2CCN(c3ccccc3F)CC2)cc1C(=O)O [Compound 5]
CC50 at 48 h [1]: > 200 µM | IC50 ([2]; Influenza A virus, MDCK): > 200 µM

Cc1ccc(-c2onc3ccc(-c4cc(C(=O)O)c5cc(C)ccc5n4)cc23)cc1 [Compound 10]
CC50 at 48 h [1]: > 200 µM | IC50 ([2]; Influenza A virus, MDCK): 1.75 ± 0.28 µM

Cc1cc2nc(C)c(C(=O)O)n2cc1-c1ccc(-c2ccccc2)cc1 [Compound 11, 6-([1,1′-Biphenyl]-4-yl)-2,7-dimethylimidazo[1,2-a]pyridine-3-carboxylic acid]
CC50 at 48 h [1]: > 200 µM | IC50 [2, 5]: 0.85 ± 0.05 µM | CC50 at 48 h [3]: > 200 µM | IC50 (SARS-CoV-2; [6]): 3.6 ± 0.67 µM | kon (human DHODH; read-out: Ka, association constant): 4.83e+06 M⁻¹ s⁻¹ | koff (human DHODH; read-out: Kdis, dissociation constant): 29.3 s⁻¹

CCOC(=O)c1c(C)nc2ccc(-c3ccc(-c4ccccc4)cc3)cn12 [Compound 14, Ethyl 6-([1,1′-biphenyl]-4-yl)-2-methylimidazo[1,2-a]pyridine-3-carboxylate]
CC50 at 48 h [1]: > 200 µM | IC50 [2, 5]: > 200 µM | CC50 at 48 h [3]: > 200 µM | IC50 (SARS-CoV-2; [6]): > 200 µM

CC1(c2ccccc2)CC(C)(C)N(C(=O)CSc2nc(O)cc(CSc3ccc(Cl)cc3)n2)c2ccccc21 (centres unmarked) [Compound 1]
CC50 at 48 h [1]: 34.5 ± 1.58 µM | IC50 ([2]; Influenza A virus, MDCK): 36.8 ± 2.36 µM

CCOC(=O)c1c(C)nc2cc(C)c(-c3ccc(-c4ccccc4)cc3)cn12 [Compound 15, Ethyl 6-([1,1′-biphenyl]-4-yl)-2,7-dimethylimidazo[1,2-a]pyridine-3-carboxylate]
CC50 at 48 h [1]: > 200 µM | IC50 [2, 5]: > 200 µM | CC50 at 48 h [3]: > 200 µM | IC50 (SARS-CoV-2; [6]): > 200 µM

CN1C(=O)c2ccccc2Sc2cc(-c3noc(CNC(=O)Cc4ccc(Cl)cc4)n3)ccc21 [Compound 8]
CC50 at 48 h [1]: > 200 µM | IC50 ([2]; Influenza A virus, MDCK): 13.4 ± 2.45 µM

CCn1c(CO)nn(-c2cc(O[C@@H](C)C(F)(F)F)c(C(=O)Nc3c(F)cccc3Cl)cc2F)c1=O [BAY 2402234]
EC50 (human lung organoids): 0.032 µM

CCOC(=O)c1c(C)nc2ncc(-c3ccc(-c4ccccc4)cc3)cn12 [Compound 16, Ethyl 6-([1,1′-biphenyl]-4-yl)-2-methylimidazo[1,2-a]pyrimidine-3-carboxylate]
CC50 at 48 h [1]: > 200 µM | IC50 [2, 5]: > 200 µM | CC50 at 48 h [3]: > 200 µM | IC50 (SARS-CoV-2; [6]): > 200 µM

Cc1ccc(-c2onc3ccc(-c4cc(C(=O)O)c5ccccc5n4)cc23)cc1 [Compound 9]
CC50 at 48 h [1]: > 200 µM | IC50 ([2]; Influenza A virus, MDCK): 7.35 ± 1.65 µM

CC(=O)c1ccc(N2CCN(C(=O)c3cc4c(=O)n(C)c5ccccc5c4s3)CC2)cc1 [Compound 6]
CC50 at 48 h [1]: > 200 µM | IC50 ([2]; Influenza A virus, MDCK): 4.85 ± 0.58 µM
